In ChEMBL document CHEMBL1201862, “PubChem BioAssay data set” (2004):
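Tested at 5 concentrations; 48 h exposure; 96-well plates; endpoints linearly interpolated, else capped at highest concentration. Here, GI50 denotes the concentration required for 50% inhibition of growth.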 The source made the active and inactive calls. No stated cut-off is given here; in the data, active = GI50 up to about 1.1 µM and inactive = higher.

How the values were obtained:
Experiment in all cases: NCI-60 cell line screen, 48 h
[1] = system: OVCAR-5
[2] = system: SF-539
[3] = system: NCI-H23
[4] = system: HCT-15
[5] = system: SF-268
[6] = system: EKVX
[7] = system: SNB-19
[8] = system: K562
[9] = system: IGROV-1
[10] = system: UACC-257
[11] = system: UO-31
[12] = system: HOP-62
[13] = system: NCI-H522
[14] = system: MDA-N
[15] = system: SR
[16] = system: CAKI-1
[17] = system: HOP-92
[18] = system: Hs-578T
[19] = system: NCI/ADR-RES
[20] = system: SK-MEL-28

SMILES	GI50 [1]	GI50 [2]	GI50 [3]	GI50 [4]	GI50 [5]	GI50 [6]	GI50 [7]	GI50 [8]	GI50 [9]	GI50 [10]	GI50 [11]	GI50 [12]	GI50 [13]	GI50 [14]	GI50 [15]	GI50 [16]	GI50 [17]	GI50 [18]	GI50 [19]	GI50 [20]
COc1cccc(/N=N/N2CCCC2)c1	> 100 µM (inactive)	> 100 µM (inactive)	> 100 µM (inactive)	> 100 µM	> 100 µM (inactive)	> 100 µM (inactive)	> 100 µM (inactive)	> 100 µM (inactive)	> 100 µM (inactive)	> 100 µM (inactive)	> 100 µM (inactive)	> 100 µM (inactive)	> 100 µM (inactive)	41.4 µM (inactive)	40.2 µM (inactive)	> 100 µM (inactive)	> 100 µM (inactive)	> 100 µM (inactive)	> 100 µM (inactive)	–
CCOC(=O)CC1Nc2ccccc2C12CCc1c([nH]c3ccccc13)C2C(=O)OCC (stereo not given)	> 100 µM (inactive)	88.1 µM (inactive)	51.2 µM (inactive)	13.1 µM	51.4 µM (inactive)	16.2 µM (inactive)	> 100 µM (inactive)	34 µM (inactive)	6.92 µM (inactive)	38 µM (inactive)	36.1 µM (inactive)	> 100 µM (inactive)	7.13 µM (inactive)	4.65 µM (inactive)	17.3 µM (inactive)	6.58 µM (inactive)	–	8.18 µM (inactive)	12.6 µM (inactive)	35.1 µM (inactive)
Cc1[nH]c2ccccc2c1/C=N/c1ccc(Oc2ccccc2)cc1	16.3 µM (inactive)	18.1 µM (inactive)	16 µM (inactive)	18.6 µM	14.6 µM (inactive)	14.1 µM (inactive)	18 µM (inactive)	23.2 µM (inactive)	13.4 µM (inactive)	17.4 µM (inactive)	12 µM (inactive)	–	14.1 µM (inactive)	17.2 µM (inactive)	19.1 µM (inactive)	15.9 µM (inactive)	12.7 µM (inactive)	22.6 µM (inactive)	19.1 µM (inactive)	18.8 µM (inactive)
O=C(O)CN(CCNC(=O)OCC1c2ccccc2-c2ccccc21)CCNC(=O)OCC1c2ccccc2-c2ccccc21	33.3 µM (inactive)	25.4 µM (inactive)	24.8 µM (inactive)	27.2 µM	19 µM (inactive)	23.7 µM (inactive)	29.6 µM (inactive)	19 µM (inactive)	20.6 µM (inactive)	29.2 µM (inactive)	22.1 µM (inactive)	21.3 µM (inactive)	17.2 µM (inactive)	20 µM (inactive)	24.9 µM (inactive)	–	22.1 µM (inactive)	43.9 µM (inactive)	45.2 µM (inactive)	25 µM (inactive)
CCN(CC)CCC(=O)c1ccc(Sc2ccc(F)cc2)cc1	19.7 µM (inactive)	17.7 µM (inactive)	17.7 µM (inactive)	17.3 µM	15.8 µM (inactive)	19.9 µM (inactive)	17.6 µM (inactive)	52.8 µM (inactive)	18.2 µM (inactive)	15.7 µM (inactive)	17.8 µM (inactive)	18.7 µM (inactive)	16.1 µM (inactive)	25 µM (inactive)	12.9 µM (inactive)	16 µM (inactive)	–	15.8 µM (inactive)	24.3 µM (inactive)	17.8 µM (inactive)
